One series deals with MKN-45 cells. Further details: method as in doi:10.1080/00958972.2018.1447668. The conditions noted are these: 48 h of incubation; cited from earlier work.
The test system of another series is B16 cells. The experiment in a line: Cell cycle analysis (PI, flow cytometry). The following applies: 24 h; for cells in the G2/M phase: untreated 15.53%; for cells in the S phase: untreated 25.65%; for cells in the G0/G1 phase: untreated 49.70%; for changes in the cell cycle: 1 μM or 5 μM. In kind it is cell-based, mouse. As for the experimental part: Twenty-four hours after treatment of B16 cells with concentrations of 1 and 5 μM of each compound, cells were harvested and fixed with pre-chilled 70% ethanol solution at −20 °C. Cells were incubated with 0.2 mg/mL RNAse and 20 μg/mL propidium iodide (PI) in a 0.1% Triton TX-100 solution, in the dark, for 30 min at 37 °C. Cell cycle distribution was analyzed using a Beckman Coulter Cell Lab Quanta SC Flow Cytometer (Indianapolis, IN, USA), and the data were analyzed using the Quanta Analysis software.
(In general: A flow cytometer gives signals particle by particle.)

Series [1] concerns B16 murine melanoma cells. As to the kind of experiment: MTT cell viability assay on B16 cells. In kind it is cell-based, mouse. The following applies: for IC50: MTT. Here is the method:
(§1) Human fibroblast cells (BJ-ATCC CRL-2522, USA) were grown in minimal essential medium (MEM) supplemented with 2 mM L-Glutamine, 10% fetal calf serum (FCS), 100 units/mL of penicillin, and 100 µg/mL of streptomycin at 37 °C in a humidified incubator under an atmosphere containing 5% CO2. Mouse melanoma cells (B16-ATCC CRL-6475, USA) were grown in DMEM (Dulbecco’s Modified Eagle Medium) supplemented with reagents like MEM. All cell cultivation media and reagents were purchased from Biochrom AG (Berlin, Germany) and Sigma-Aldrich (Darmstadt, Germany).
(§2) Cell viability was evaluated using the MTT assay (3-(4,5-dimethylthiazol-2-yl)-2,5-diphenyltetrazolium bromide) as previously described. Briefly, BJ and B16 cells were seeded in 96-well plates at densities of 10,000 cells/well and 7000 cells/well and further cultured in the medium for 24 h. The next day, the investigated compounds were added at a concentration of 1 to 25 μM for 24 and 48 h. The cells cultivated in medium without the studied samples served as negative controls. After incubation for the desired times, the medium was replaced with MTT solution (1 mg/mL) and incubated for an additional 4 h at 37 °C. Finally, the medium was collected, and DMSO was used to dissolve the insoluble formazan product. A Mithras 940 (Berthold, Bad Wildbad, Germany) plate reader was used to measure the absorbance of the samples at 570 nm. The data were corrected for background, and the percentage of viable cells was obtained using the following equation:Cell viability = [(A570 of treated cells)/(A570 of untreated cells)] × 100 (%)
(§3) Half-maximal inhibitory concentration (IC50) was determined by fitting the data with a sigmoidal logistic function using Origin 8.1 (Microcal Inc., Northampton, MA, USA) software.

The subject of series [2] is Human fibroblast cells (BJ). The experiment in a line: MTT cell viability assay on BJ cells. In kind it is cell-based. The following applies: for IC50: MTT. Here is the method: as §1, §2, §3
(In general: Tetrazolium assays rely on reduction of a dye to a coloured formazan, in cell work by metabolically active cells.)

Series [3] in a line: EPR, interaction with superoxide (KO2). The conditions noted are these: 100 µM in DMSO, KO2 added. Here is the method:
The C, N, and H chemical analyses were carried out with a EuroEA elemental analyzer. Fourier Transform Infrared spectroscopy (FTIR) spectra were recorded with a Tensor 37 spectrometer (Bruker, Billerica, MA, USA) in the 400–4000 cm^−1 range. A Jasco V 670 spectrophotometer (Jasco, Easton, MD, USA) with Spectralon as a standard in the 200–1500 nm range was used to record the UV-Vis spectra in solid-state. A continuous wave X-Band Bruker EMX plus EPR spectrometer (Bruker, Karlsruhe, Germany) equipped with a Bruker X-SHQ 4119HS-W1 X-Band resonator was used for the X-band EPR measurements. The parameters for the X-Band measurements were set as follows: microwave frequency 9.879 GHz, microwave power 6.325 mW, modulation amplitude 0.2 mT, conversion time 74.17 ms, and time constant 40.96 ms at 35 scans. All measurements were carried out at room temperature. Simultaneous Thermogravimetric/Differential Scanning Calorimetry–Mass spectroscopy (TG-DSC/MS) measurements were performed on a TGA/DSC1 Thermal Analyser (Mettler Toledo, Schwarzenbach, Switzerland), coupled to a Vacuum Thermostar Mass Spectrometer (Pfeiffer, Asslar, Germany) under the following conditions: isothermal conditioning at 25 °C, temperature range from 25 to 800 °C, heating rate 5 °C/min, dynamic air atmosphere with a flow rate of 100 mL/min, sample masses of 2–4 mg, 150 μL platinum crucible; empty crucible served as reference. The blank curve was subtracted. Evolved gasses were introduced into the Mass Spectrometer via a 75 cm heated capillary.
In contrast, all compounds in the presence of HO⋅ radicals show the trapping ability of these radicals, as indicated by the additional EPR signals in all four EPR spectra.

Data on 4 compounds can be found in PMC9416163, “Antiproliferative Copper(II) Complexes Bearing Mixed Chelating Ligands: Structural Characterization, ROS Scavenging, In Silico Studies, and Anti-Melanoma Activity” (Pharmaceutics, 2022).

The term cell viability denotes the share of living cells, or the viability signal relative to a control. Read a low cell viability as a greater loss of cells. In general, IC50 refers to the midpoint of a concentration-inhibition curve.

`CC(=O)C=C([O-])c1ccccc1.[Cu+2].[O-][Cl+3]([O-])([O-])[O-].c1cnc2c(c1)ccc1cccnc12` [Compound (1), [Cu(phen)(bzac)(ClO4)]]: the “cytotoxicity compared with 5-fluorouracil” value in the series on MKN-45 cells is “significantly more cytotoxic against MKN-45 cells than 5-fluorouracil”. Besides, in the series with B16 cells (5 μM, untreated 9.11%), the “cells in the sub-G1 phase” value is 18.43%. Moreover, in the series with B16 cells (5 μM), the “cells in the G2/M phase” value was 5.59%. The “cells in the S phase” value in the series on B16 cells (5 μM) is on record as 15.82%. In the series on B16 cells (5 μM), the “cells in the G0/G1 phase” value is given as 60.14%. Also, the cell viability is given as 10% in series [1] (10 μM), “about 5%” in series [1] (up to 25 μM), 20% in series [2] (10 μM) and “about 15%” in series [2] (up to 25 μM). Besides, the 50% inhibitory concentration (IC50) was 3.48 µM in series [1] (24 h), 2.2 µM in series [1] (48 h), 3.95 µM in series [2] (24 h) and 2.8 µM in series [2] (48 h). Further, the “response to O2⋅^− radicals (EPR)” value in series [3] is on record as “exhibit a scavenging response”.

Turning to `CC(=O)C=C([O-])c1ccccc1.O.O=[N+]([O-])[O-].[Cu+2].c1cnc2c(c1)ccc1cccnc12` [Compound (2), [Cu(phen)(bzac)(NO3)]⋅H2O], the “cells in the G2/M phase” value in the series with B16 cells (5 μM) is listed as 10.78%. Also, the “cells in the S phase” value in the series with B16 cells (5 μM) worked out at 13.81%. In the series on B16 cells (5 μM), the “cells in the G0/G1 phase” value was determined as 54.90%. For the same compound, the cell viability in series [1] (10 μM) is 10%; in series [1] (up to 25 μM) it was “about 5%”; in series [2] (10 μM) it was 20%; in series [2] (up to 25 μM), “about 15%”. The IC50 in series [1] (24 h) is 2.65 µM; in series [1] (48 h), 1.44 µM; in series [2] (24 h), 4.85 µM; in series [2] (48 h), 2.48 µM. The “response to O2⋅^− radicals (EPR)” value in series [3] was “exhibit a scavenging response”.

`CC(=O)C=C([O-])c1ccccc1.[Cu+2].[O-][Cl+3]([O-])([O-])[O-].c1ccc(-c2ccccn2)nc1` [Compound (3), [Cu(bpy)(bzac)]ClO4]: in the series on MKN-45 cells, the “cytotoxicity compared with 5-fluorouracil” value is “significantly more cytotoxic against MKN-45 cells than 5-fluorouracil”. For the same compound, the “changes in the cell cycle” value in the series with B16 cells is given as “no changes in the cell cycle were observed”. The IC50 in series [1] (24 h) came out at 8.28 µM; in series [1] (48 h) it was 4.65 µM; in series [2] (24 h), 11 µM; in series [2] (48 h), 10.4 µM. Also, the “response to O2⋅^− radicals (EPR)” value in series [3] is listed as “exhibit a scavenging response”.

On to `CC(=O)C=C([O-])c1ccccc1.O=[N+]([O-])[O-].[Cu+2].c1ccc(-c2ccccn2)nc1` [Compound (4), [Cu(bpy)(bzac)(NO3)]], for which the “changes in the cell cycle” value in the series with B16 cells is recorded as “no changes in the cell cycle were observed”. Besides, the IC50 in series [1] (24 h) came out at 6.43 µM; in series [1] (48 h), 4.7 µM; in series [2] (24 h), 11.7 µM; in series [2] (48 h), 10.3 µM. Further, the “response to O2⋅^− radicals (EPR)” value in series [3] was “neither scavenging nor a trapping ability toward superoxide radicals”.
